In ChEMBL document CHEMBL1201862, “PubChem BioAssay data set” (2004):
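Protocol summary: plate cells (96-well), add compound at 5 concentrations, incubate 48 h, interpolate endpoints linearly. GI50: concentration for 50% inhibition of growth.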 The source made the active and inactive calls. Rule as the data show it: active = GI50 up to about 1.1 µM and inactive = higher.

Assays:
Assay in all cases: NCI-60 cell line screen, 48 h
ACHN = tested on: ACHN
COLO 205 = tested on: COLO 205
DU-145 = tested on: DU-145
HCT-116 = tested on: HCT-116
HL-60 = tested on: HL-60
HOP-92 = tested on: HOP-92
HT-29 = tested on: HT-29
Hs-578T = tested on: Hs-578T
K562 = tested on: K562
KM12 = tested on: KM12
MCF7 = tested on: MCF7
MDA-MB-231 = tested on: MDA-MB-231
NCI/ADR-RES = tested on: NCI/ADR-RES
OVCAR-5 = tested on: OVCAR-5
PC-3 = tested on: PC-3
SK-MEL-5 = tested on: SK-MEL-5
SN12C = tested on: SN12C
SNB-75 = tested on: SNB-75
TK-10 = tested on: TK-10

Row | Compound | GI50 (ACHN) | GI50 (COLO 205) | GI50 (DU-145) | GI50 (HCT-116) | GI50 (HL-60) | GI50 (HOP-92) | GI50 (HT-29) | GI50 (Hs-578T) | GI50 (K562) | GI50 (KM12) | GI50 (MCF7) | GI50 (MDA-MB-231) | GI50 (NCI/ADR-RES) | GI50 (OVCAR-5) | GI50 (PC-3) | GI50 (SK-MEL-5) | GI50 (SN12C) | GI50 (SNB-75) | GI50 (TK-10)
1 | COC(=O)/C=C\C(C#N)(C#N)/N=C/c1ccc(C)cc1 | 2.3 µM (inactive) | 1.97 µM (inactive) | 5.86 µM (inactive) | 1.76 µM (inactive) | 2.52 µM (inactive) | 1.09 µM (active) | 3.8 µM (inactive) | 20.5 µM (inactive) | 3.04 µM (inactive) | 18 µM (inactive) | 1.67 µM (inactive) | 15.5 µM (inactive) | 3.1 µM (inactive) | 19.7 µM (inactive) | 6.44 µM (inactive) | 12.6 µM (inactive) | 13.2 µM (inactive) | 15.3 µM (inactive) | 1.8 µM (inactive)
2 | CC(C)(C)OC(=O)CN1CCNCCN(CC(=O)OC(C)(C)C)CC1 | > 100 µM (inactive) | > 100 µM (inactive) | > 100 µM (inactive) | > 100 µM (inactive) | 19.2 µM (inactive) | > 100 µM (inactive) | 44.3 µM (inactive) | > 100 µM (inactive) | 54.5 µM (inactive) | > 100 µM (inactive) | > 100 µM (inactive) | > 100 µM (inactive) | > 100 µM (inactive) | > 100 µM (inactive) | > 100 µM (inactive) | > 100 µM (inactive) | > 100 µM (inactive) | 12.8 µM (inactive) | > 100 µM (inactive)
3 | CC[N+]1(C)CCC(O)(/C=C/c2ccc(Cl)cc2)C(C(=O)/C=C/c2ccc(Cl)cc2)C1 (stereo unspecified) | 3.6 µM (inactive) | 3.55 µM (inactive) | 12.1 µM (inactive) | 3.48 µM (inactive) | 1.6 µM (inactive) | 3.23 µM (inactive) | 3.08 µM (inactive) | 3.08 µM (inactive) | 2.37 µM (inactive) | 2.9 µM (inactive) | 3.92 µM (inactive) | 4.81 µM (inactive) | 9.64 µM (inactive) | 17.3 µM (inactive) | 10.7 µM (inactive) | 10.5 µM (inactive) | 7.11 µM (inactive) | 11.3 µM (inactive) | 3.51 µM (inactive)
4 | CC(=O)c1cc(C)n2c1CS[C@@H]2c1ccccc1 | 68.2 µM (inactive) | 12.2 µM (inactive) | 29.1 µM (inactive) | 30.8 µM (inactive) | 34 µM (inactive) | 20.2 µM (inactive) | 46.3 µM (inactive) | > 100 µM (inactive) | 31.6 µM (inactive) | 54.6 µM (inactive) | 35.9 µM (inactive) | 43.3 µM (inactive) | 50.1 µM (inactive) | > 100 µM (inactive) | 33.3 µM (inactive) | 32.2 µM (inactive) | 57.3 µM (inactive) | 65.8 µM (inactive) | 91 µM (inactive)
5 | Oc1ccc2ccccc2c1-c1c(Nc2ccccc2)ccc2ccccc12 | 19.9 µM (inactive) | 19.9 µM (inactive) | 17.3 µM (inactive) | 11.6 µM (inactive) | 19.5 µM (inactive) | 1.32 µM (inactive) | 33.7 µM (inactive) | 19.9 µM (inactive) | 13.7 µM (inactive) | 17.9 µM (inactive) | 13 µM (inactive) | 0.498 µM (active) | > 34.7 µM (inactive) | 16.3 µM (inactive) | 18.4 µM (inactive) | 13.6 µM (inactive) | 27 µM (inactive) | 16.1 µM (inactive) | 16.9 µM (inactive)
6 | NC(=O)C[C@H](NC(=O)C1(NC(=O)[C@H](Cc2ccc(CP(=O)(O)O)cc2)NC(=O)C(=O)O)CCCCC1)C(=O)NCCCc1cccc2ccccc12 | > 10 µM (inactive) | > 10 µM (inactive) | > 10 µM (inactive) | > 10 µM (inactive) | > 10 µM (inactive) | > 10 µM (inactive) | > 10 µM (inactive) | > 10 µM (inactive) | > 10 µM (inactive) | > 10 µM (inactive) | > 10 µM (inactive) | > 10 µM (inactive) | > 10 µM (inactive) | > 10 µM (inactive) | > 10 µM (inactive) | > 10 µM (inactive) | > 10 µM (inactive) | > 10 µM (inactive) | > 10 µM (inactive)
7 | CC(C)C1OC(N)=C(C#N)C1(C#N)C#N (stereo unspecified) | 36.9 µM (inactive) | 18.2 µM (inactive) | 51.3 µM (inactive) | 26.3 µM (inactive) | 5.58 µM (inactive) | 31.3 µM (inactive) | 38.1 µM (inactive) | 53.7 µM (inactive) | 8.49 µM (inactive) | > 100 µM (inactive) | 69.7 µM (inactive) | > 100 µM (inactive) | 58.1 µM (inactive) | > 100 µM (inactive) | > 100 µM (inactive) | 33.3 µM (inactive) | 69.7 µM (inactive) | 33.8 µM (inactive) | 83.4 µM (inactive)
8 | N=C(NCc1ccccc1)N/N=C\c1ccnc2ccccc12 | 15.3 µM (inactive) | 1.71 µM (inactive) | 16.5 µM (inactive) | – | 14.3 µM (inactive) | 1.43 µM (inactive) | 11.2 µM (inactive) | 18.8 µM (inactive) | 4.31 µM (inactive) | 15.9 µM (inactive) | 11.7 µM (inactive) | 13.9 µM (inactive) | 15.8 µM (inactive) | 13.4 µM (inactive) | 15.6 µM (inactive) | 6.52 µM (inactive) | 15.1 µM (inactive) | 8.04 µM (inactive) | 14.8 µM (inactive)
